Reference: ChEMBL document CHEMBL3301361, “Experimental in vitro DMPK and physicochemical data on a set of publicly disclosed compounds”

Assay: physchem
Settings: octan-1-ol/water, pH 7.4

Row | Compound | logD
1 | CC(C)[C@@H](CN1CCCCC1)N(C)C(=O)Cc1ccc(Cl)c(Cl)c1 | 2.87
2 | COCCCOc1ccnc(C[S+]([O-])c2nc3ccccc3[nH]2)c1C (stereo unspecified) [RABEPRAZOLE] | -0.69
3 | CC(=O)c1ccc2c(c1)N(CCN1CCC(NCc3ccc4c(n3)NC(=O)CO4)CC1)C(=O)CO2 | 0.37
4 | CCC(COC(=O)c1cc(OC)c(OC)c(OC)c1)(c1ccccc1)N(C)C (stereo unspecified) [TRIMEBUTINE] | 3.77
5 | Cn1nnc(-c2ccc(-c3ccc(N4C[C@H](COc5ccon5)OC4=O)cc3F)cn2)n1 | 1.24
6 | CC(C)CC(N(C)C)C1(c2ccc(Cl)cc2)CCC1 (stereo unspecified) [SIBUTRAMINE] | 3.6
7 | NC(=O)c1cccc(C[C@H]2C[C@H]3CC[C@@H](C2)N3Cc2ccccc2)c1 | 1.19
8 | Cc1ccc(-c2cc(C(=O)N3CCOCC3)c3cc(C)ccc3n2)cc1 | 3.6
9 | Oc1cc(Cl)cc(Cl)c1 | 3.58
10 | CCN(CC)CCN1C(=O)CN=C(c2ccccc2F)c2cc(Cl)ccc21 [FLURAZEPAM] | 2.38
11 | NC(=O)c1ccc(O[C@H]2C[C@H]3CC[C@@H](C2)N3Cc2ccccc2)nc1 | 1.25
12 | NC(Cc1ccccc1)c1ccccc1 (stereo unspecified) | 1.32
13 | CCOC(=O)Nc1cccc([C@@H](c2ccc(C(=O)N(C)CC)cc2)N2CCN(Cc3nc[nH]c3C)CC2)c1 | 2.32
14 | CCOC(=O)Nc1cccc([C@@H](c2ccc(C(=O)N(C)CC)cc2)N2CCN(Cc3c[nH]c(C)n3)CC2)c1 | 2.11
15 | Nc1nc(Nc2ccc3nc(-c4ccc(F)cc4)cc(N)c3c2)cc(-c2ccc(C(F)(F)F)cc2)n1 | 1.54
16 | NC(=O)c1cccc(S[C@H]2C[C@H]3CC[C@@H](C2)N3Cc2ccccc2)c1 | 2.22

Same assay, conditions: octan-1-ol/water, pH 7.4, LogD7.4

Row | Compound | logD
17 | CC(C)Cn1c(=O)n(C)c(=O)c2c(C(=O)N3CC[C@@H](O)C3)c(Oc3cccc4ccccc34)sc21 | 2.87
18 | Cc1cccc(Br)c1C(=O)N[C@@H](Cc1ccc(NC(=O)c2c(Cl)cccc2Cl)cc1)C(=O)O | -0.13
19 | c1ccc(CNc2nc3ccccc3[nH]2)cc1 | 2.76
20 | CN1CCN(C(=O)c2cc3cc(F)ccc3[nH]2)CC1 | 1.97
21 | CCCN[C@H]1CCc2nc(N)sc2C1 [PRAMIPEXOLE] | 3.15
22 | CC(=O)NC[C@H]1CN(c2ccc(-n3ccnc3)c(F)c2)C(=O)O1 | 0.7
23 | O=C(CSc1ccccc1)N1CCN(c2ccccc2)CC1 | 3.2
24 | NC1(C(=O)NC(CCCN2CCOCC2)c2ccc(Cl)cc2)CCN(c2ncnc3[nH]ccc23)CC1 (stereo unspecified) | 2.7
25 | c1ccc(-c2nc3ccccc3[nH]2)nc1 | 2.5
26 | Oc1cc(-c2ccccc2)nc2ncnn12 | -0.21
27 | O=c1[nH]c(-c2ccccc2)nc2cc(Cl)ccc12 | 3.31
28 | NC(=O)C(NC(=O)C1(N)CCN(c2ncnc3[nH]ccc23)CC1)c1ccc(Cl)cc1 (stereo unspecified) | 2.2
29 | CC(C)(C(N)=O)C(=O)NCCCNc1nc(Nc2cccc(NC(=O)N3CCCC3)c2)ncc1Br | 2.32
30 | O=C1CCOc2nc(C#CC3CCCC3)ccc21 | 3
31 | O=c1ccc(=O)c2ccccc2[nH]1 | 1.02
32 | CCOc1ccc(-c2cnc3n2CCCCC3)cc1 | 3.01
33 | O=C(Nc1ccc(F)cc1F)c1cc(Cl)ccc1O | 3.6
34 | CC(C)C(NC(=O)Cn1c(-c2ccccc2)ccc(NC(=O)OCc2ccncc2)c1=O)C(=O)C(F)(F)F (stereo unspecified) | 2.41
35 | Cc1ccsc1Cn1[nH]c(=O)c2[nH]c3cc(Cl)ccc3c(=O)c2c1=O | 1.15
36 | Nc1cc2n[nH]c(=O)n2c2cc(-c3ccc[nH]3)ccc12 | 2.3
37 | O=C(Nc1ccc(Cl)nc1)c1ccc(F)c(Cl)c1 | 3.64
38 | Oc1ccc(-c2cnc3ccccc3n2)cc1 | 3.3
39 | Cc1ccccc1C(=O)N1CCN(c2ccccn2)CC1 | 2.18
40 | Nc1cccc2c1C(=O)N(Cc1cccc(Cl)c1)C2=O | 3.18

Row | Compound | logD
41 | COc1cccc([C@H](O)C2CCN(CCc3ccc(F)cc3)CC2)c1OC [VOLINANSERIN] | 1.7
42 | NC(=O)c1cnc(N[C@H]2CCCNC2)c2cc(-c3ccc(F)c(Cl)c3)sc12 | 2.94
43 | N#Cc1cccc(-c2cccc(-c3nn[nH]n3)c2)c1 | 0.7
44 | COc1cc(-c2ccncc2)cc2cnc(Nc3ccc([C@@H](C)NC(C)=O)cc3)nc12 | 2.73
45 | CC(C)C(NC(=O)Cn1c(-c2ccccc2)cc2c(O)nc(O)nc2c1=O)C(=O)C(F)(F)F (stereo unspecified) | 1.88
46 | NC(=O)N1c2ccccc2C[C@H](O)c2ccccc21 [ESLICARBAZEPINE] | 0.79
47 | COc1cc(F)ccc1-c1cccc(CNC2CCCC2)c1 | 2.29
48 | O=c1c2ccc(Cl)cc2[nH]c2c(O)nn(Cc3ccsc3)c(=O)c12 | 1.11
49 | O=C(N[C@@H](c1ccccc1)[C@@H]1CCCCN1)c1cccc(C(F)(F)F)c1Cl | 2.61
50 | COc1ccc(-c2cc(NC(=O)Cc3ccc4ccccc4c3)[nH]n2)cc1OC | 3.1
51 | C[C@@H]1CN(c2c(F)c(N)c3c(=O)c(C(=O)O)cn(C4CC4)c3c2F)C[C@H](C)N1 [SPARFLOXACIN] | -0.15
52 | COc1ccc2c(C)nc(=O)n(CCN3CCC(NCc4cc5c(cn4)OCCO5)CC3)c2c1 | 0.29
53 | CN(C)C(=O)N1CCC(C(=O)NCc2cccs2)CC1 | 1.1
54 | Nc1n[nH]c2ccccc12 | 1
55 | Cc1oc(C#N)cc1-c1c2c(=O)n(C)c(=O)n(CC3CC3)c2nn1Cc1ccnc2ccc(Cl)cc12 | 4.26
56 | O=c1[nH][nH]c(=O)c2c(O)c3c(Cl)cc(Cl)cc3nc12 | 0.89
57 | CC(=N)NCc1ccccc1 | -0.28
58 | NNc1nc2ccccc2[nH]c1=O | 0.44
59 | C[C@H](Oc1ccc(S(C)(=O)=O)cc1C(=O)N1CCN(c2ncc(C(F)(F)F)cc2F)CC1)C(F)(F)F [BITOPERTIN] | 3.49
60 | COc1ccc(Nc2ccccc2C(=O)O)cc1 | 1.2
61 | N#Cc1c(-c2ccc(-c3ccccc3C(F)(F)F)cc2)nc2ccncc2c1O | 3.3
62 | CC(C)C(NC(=O)Cn1c(-c2ccc(F)cc2)ncc(NC(=O)OCc2ccccc2)c1=O)C(=O)C(F)(F)F (stereo unspecified) | 2.47
63 | CCC(c1nc2ccsc2c(=O)n1Cc1ccc(C)cc1)N(CCCN)C(=O)c1ccc(C)cc1 (stereo unspecified) | 1.69
64 | Cn1nc(C(C)(C)C)cc1NC(=O)Nc1ccc(Cl)cc1 | 3.97

Row | Compound | logD
65 | COc1ccc2nc3ccccc3c(N)c2c1 | 1
66 | O=C(N[C@@H](Cc1ccc(CCCCNc2ccccn2)cc1)C(=O)O)c1c(Cl)cccc1Cl | 0.51
67 | O=C(O)CCn1c2ccccc2c2ccccc21 | 0.6
68 | CN1CCC(=C2c3ccccc3C=Cc3ccccc32)CC1 [CYPROHEPTADINE] | 3.06
69 | Oc1ccc(-c2nc3ccc(O)cc3o2)cc1 | 3.3
70 | COc1cc(C(=O)NS(=O)(=O)c2ccccc2)ccc1Cn1ncc2ccc(NC(=O)OC3CCCC3)cc21 [ICI-198615] | 1.8
71 | CCN(CC)CC(=O)Nc1c(C#N)cnn1-c1ccccc1 | 0.4
72 | CSc1ccc(-c2nc(-c3ccc(F)cc3)c(-c3ccncc3)[nH]2)cc1 | 2.97
73 | O=C(Nc1ccc(O)cc1)c1ccc(O)cc1 | 1.5
74 | O=C(COc1ccccc1O)NC1CCCC1 | 2.31
75 | COc1ncc(C)cc1-c1cccc2c(N)c(C(=O)NC3CC3)nnc12 | 3.4
76 | Oc1ncnc2onc(-c3ccc(F)cc3)c12 | 1.97
77 | COc1cc2ncnc(Nc3ccc(F)cc3)c2cc1OC | 3.1
78 | Cc1nc(C(=O)[C@@H](C)Oc2ccc(SCCCCCc3ccccc3)cc2)sc1CCCC(=O)O | 3.58
79 | NC1(C(=O)N[C@@H](CCN2CCCCC2)c2ccc(Cl)cc2)CCN(c2ncnc3[nH]ccc23)CC1 | 2.4
80 | NC1(C(=O)NC(c2ccc(Cl)cc2)C2CC2)CCN(c2ncnc3[nH]ccc23)CC1 (stereo unspecified) | 3.4
81 | CCN(CC)CCNC(=O)c1cc(Br)c(N)cc1OC [BROMOPRIDE] | 0.54
82 | O=C(CC1CCN(Cc2ccn(-c3ccc(C(F)(F)F)cc3)c2)CC1)N(CCCO)Cc1ccc(F)cc1 | 3.04
83 | Cn1c(-c2ccncc2)cc2onc(-c3ccccc3)c2c1=O | 2.61
84 | CC(=O)c1ccc(S(=O)(=O)NC(=O)NC2CCCCC2)cc1 [ACETOHEXAMIDE] | -0.49
85 | NC(=O)Nc1sc(-c2ccc(OCCN3CCCCC3)cc2)cc1C(N)=O | 1.2
86 | Cc1occc(=O)c1OCc1ccccc1 | 1.87
87 | CC(=O)NC[C@H]1CN(c2ccc(-n3cnc(C#N)c3)c(F)c2)C(=O)O1 | 1.51
88 | O=C(NCCCN1CCCCC1)C(c1ccccc1)c1ccccc1 | 1.33

Row | Compound | logD
89 | O=C(Cc1ccccc1)c1ccc(O)cc1O | 3.09
90 | C[C@H](CO)Nc1nc(SCc2cccc(F)c2F)nc2[nH]c(=O)c(C#N)cc12 | 3.32
91 | O=S(=O)(NCC(c1ccccc1)N1CCCCCC1)c1ccc(C(F)(F)F)cc1 (stereo unspecified) | 4.29
92 | CS(=O)(=O)c1ccc(C(CCNC(=O)c2ccc(C#N)cc2)c2ccc(F)cc2)cc1 (stereo unspecified) | 2.9
93 | Cc1cc(Cl)ccc1OC1CCN(C[C@H](O)CNC(=O)c2c[nH]c(=O)c3c(F)cccc23)CC1 | 3
94 | COc1cc2ncc(C(N)=O)c(Nc3ccc(F)cc3)c2cc1OC | 2.82
95 | O=C(N[C@H]1Cc2ccccc2N(C[C@H](O)CO)C1=O)c1cc2cc(Cl)sc2[nH]1 | 3.27
96 | Oc1ccc(-c2ccc3cc(O)ccc3n2)cc1 | 3.1
97 | Cc1ccc(-c2c[nH]nn2)cc1 | 2.58
98 | CC(c1cc2ccccc2o1)n1[nH]c(=O)c2[nH]c3cc(Cl)ccc3c(=O)c2c1=O (stereo unspecified) | 2.1
99 | COc1ccc2cc(CCC(C)=O)ccc2c1 [NABUMETONE] | 3.06
100 | O=C(Nc1cc(C(F)(F)F)cc(C(F)(F)F)c1)c1cnc(Cl)nc1C(F)(F)F | 1.8
101 | CCCc1c(OCc2ccc(C(=O)O)c(Br)c2)ccc(C(C)=O)c1O | 2.3
102 | CSc1ncccc1C(=O)Nc1nccs1 | 1.43
103 | CC(C)C(NC(=O)Cn1c(-c2ccccc2)cc2c(=O)n(CCN3CCOCC3)c(=O)[nH]c2c1=O)C(=O)C(F)(F)F (stereo unspecified) | 1.91
104 | Cc1cc(N)n(-c2ccccc2)n1 | 1.25
105 | Cc1cc2cc3c(C)cc(=O)oc3c(C)c2o1 [TRIOXSALEN] | 3.47
106 | CC(c1ccccc1)N1Cc2ccccc2C1=O (stereo unspecified) | 3
107 | C[C@H]1O[C@@H](n2cnc3c(N)nc(Oc4ccccc4)nc32)[C@H](O)[C@@H]1O | 1.05
108 | COc1ccc(C(=O)Nc2cc(NC(=O)c3cccc(N(C)C)c3)ccc2C)cc1OC | 3.12
109 | CC(=O)NC(C)c1ccc(Nc2ncc3cc(-c4ccncc4)ccc3n2)cc1 (stereo unspecified) | 3.1
110 | CCC(c1nc2sccc2c(=O)n1Cc1ccccc1)N(CCCN)C(=O)c1ccc(C)cc1 (stereo unspecified) | 2.06
111 | Nc1n[nH]c2c(Cl)cccc12 | 1.7
